Test [1] deals with T1, BRC4/RAD51 interaction (Homo sapiens, UniProt Q06609).
T1 construct: purchased Creative Biomart (Rad51); Life Technologies (BRC4 peptide)
T1 sequence (Q06609 1-339): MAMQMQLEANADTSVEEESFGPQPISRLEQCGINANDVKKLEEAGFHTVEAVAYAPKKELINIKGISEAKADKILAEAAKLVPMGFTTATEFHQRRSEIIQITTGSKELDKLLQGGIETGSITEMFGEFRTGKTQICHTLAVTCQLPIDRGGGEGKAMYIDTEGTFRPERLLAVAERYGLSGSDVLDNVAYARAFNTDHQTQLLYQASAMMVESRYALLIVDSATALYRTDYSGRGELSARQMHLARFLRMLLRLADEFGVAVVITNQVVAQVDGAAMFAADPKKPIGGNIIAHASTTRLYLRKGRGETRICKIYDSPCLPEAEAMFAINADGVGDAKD
Description: Competitive ELISA assay, disruption of BRC4/RAD51 interaction. The format is binding. The note with it: human Rad51, biotinylated BRC4 peptide. As to the method: A competitive ELISA screening assay using biotinylated BRC4 peptide to disrupt the BRC4/RAD51 interaction was performed by modifying the method described by Rajendra et al. (Nucleic Acids Res. 38 (2010) 82-96). BRC4-biotinylated peptide (N-term Biotin[…] from Life Technologies) was used to coat 384-well plates (Nunc). After washing with PBS containing 0.05% Tween-20 (PBST), and blocking with the solution BSA 1%/PBST, overnight hybridization with human Rad51 protein (NP_002866 Creative Biomart, NY) was performed. Test compounds were added in dose-response from […] in triplicate with constant DMSO 1%. Antibody raised against Rad51 (Millipore) and HRP-secondary antibody staining to develop the 3,30,5,50-tetramethyllbenzidine signal (Sigma) quenched with 1M HCl was used as the assay readout. Colorimetric measure was read on Victor5 (PerkinElmer) plate Reader. BRC4 and Rad51 were included in the assay as positive control. Results were analyzed using GraphPad Software.
Background: In an ELISA, binding on a coated surface is turned into a signal by an enzyme label.

Test [2] has as its system BxPC-3 cells. Put plainly: Cell viability assay (CellTiter Glo). The format is cell-based. The note with it: Homo sapiens, 72 h. As to the method:
BxPC-3 cells were grown in RPMI 1640 containing 10% FBS, 100 U/ml penicillin/streptomycin, 2 mM glutamine. All media and supplements were from Sigma-Aldrich. Cultures were routinely tested for Mycoplasma contamination. Treatments (Olaparib and BRCA2-Rad51 disruptors) were administered in culture medium supplemented with 0.6% DMSO. The same amount of DMSO was added to the control, untreated cultures.
Cell viability was assessed by CellTiter Glo, Luminescent Cell Viability Assay. Briefly, BxPC-3 cells (1×10^4/well) were plated in white 96-well plates with clear bottom and treated for 72 h with olaparib (10 μM) or with the BRCA2-Rad51 disruptors, given alone or in combination. After treatments, the plate was allowed to equilibrate at room temperature for 30 min and the CellTiter-Glo reactive was directly added to each well. The plate was kept on a shaker for 2 min to induce cell lysis and its luminescence was measured by using a Fluoroskan Ascent FL reader (Labsystems) using manufacturer's instructions.
(In general: Cellular ATP, detected with luciferase, serves as a proxy for viable cell number.)

For test [3], the system named is Homologous recombination (HR) in BxPC3 cells. Description: Homologous recombination assay (HR). The format is cell-based. The note with it: Homo sapiens; for inhibition at 20 µM: BXPC-3, at 20 μM. The procedure:
Homologous recombination (HR) was assessed by using a commercially available assay (Norgen). This assay is based on cell co-transfection with two plasmids that, upon cells entering, recombinate. The efficiency of HR can be assessed by real time PCR, using primer mixtures included in the assay kit. Different primer mixtures allow differentiation between the original plasmid backbones and their recombination product.
BxPC3 cells (2×10^3 per well) were seeded in a 24-well plate and allowed to adhere overnight. Co-transfection with the two plasmids was performed in Lipofectamine 2000 (Invitrogen) for 5 h, according to the manufacturer's instructions. During transfection cells were exposed at different doses of BRCA2-Rad51 disruptors, dissolved in RPMI without serum in the presence of 0.6% DMSO.
After washing with PBS, cells were harvested, and DNA was isolated using QIAamp® DNA Mini Kit (Qiagen). Sample concentration was measured using an ONDA Nano Genius photometer.
The thermal cycler (CFX96 ™ Real Time System, BioRad) was programmed as follows: initial denaturation 95° C. for 3 min then 95° C. for 15 sec., 61° C. for 30 sec., 72° C. for 1 min and repeated for 40 cycles. Melt curve analysis was done. Samples were run in triplicate, in 10 μl reaction volume containing 25 ng of template.
In each DNA sample from control and treated cultures, the ΔCt between the recombination product and the backbone plasmids was calculated. HR efficiency was evaluated from the 2^−ΔΔ^Ct value obtained by comparing treated vs control samples.

Broadly, the EC50 is the concentration that produces a half-maximal response. A word on the inhibition: it is the change of the read-out against control, counted positive when it falls.

Bounds are passed on as bounds.

With `Cn1ncc2cc(C3CC(c4c(-c5ccccc5)c5cc(Cl)ccc5[nH]c4=O)=NN3C(=O)CCC(=O)O)ccc21` (stereo not drawn) [d.26, 4-[5-(6-chloro-2-oxo-4-phenyl-1H-quinolin-3-yl)-3-(1-methylindazol-5-yl)-3,4-dihydropyrazol-2-yl]-4-oxo-butanoic acid], the EC50 in test [1] was 13 µM; in test [2] it was over 50 µM.
In the case of `CCCn1ncc2cc(C3CC(c4c(-c5ccccc5)c5cc(Cl)ccc5[nH]c4=O)=NN3C(=O)CCC(=O)O)ccc21` (stereo not drawn) [d.33, 4-[5-(6-chloro-2-oxo-4-phenyl-1H-quinolin-3-yl)-3-(1-propylindazol-5-yl)-3,4-dihydropyrazol-2-yl]-4-oxo-butanoic acid], the EC50 in test [1] and in test [2] was over 100 µM throughout.
In the case of `O=C(O)CCC(=O)N1N=C(c2c(-c3ccccc3)c3cc(Cl)ccc3[nH]c2=O)CC1c1ccc(-c2ccc(F)cc2)cc1` (stereo not drawn) [d.36, 4-[5-(6-chloro-2-oxo-4-phenyl-1H-quinolin-3-yl)-3-[4-(4-fluorophenyl)phenyl]-3,4-dihydropyrazol-2-yl]-4-oxo-butanoic acid], the concentration for a half-maximal effect (EC50) in test [1] worked out at 13 µM; in test [2], 31 µM.
On the same counts, the results for `CC(=O)N1N=C(c2c(-c3ccccc3)c3cc(Cl)ccc3[nH]c2=O)CC1c1ccc(-c2ccc(Cl)cc2)cc1` (stereo not drawn) [d.38, 3-[2-acetyl-3-[4-(4-chlorophenyl)phenyl]-3,4-dihydropyrazol-5-yl]-6-chloro-4-phenyl-1H-quinolin-2-one] are 45 µM and 18.8 µM.
On the same counts, the results for `Cn1cc2cc(C3CC(c4c(-c5ccccc5)c5cc(Cl)ccc5[nH]c4=O)=NN3C(=O)CCC(=O)O)ccc2n1` (stereo not drawn) [d.28, 4-[5-(6-chloro-2-oxo-4-phenyl-1H-quinolin-3-yl)-3-(2-methylindazol-5-yl)-3,4-dihydropyrazol-2-yl]-4-oxo-butanoic acid] are over 100 µM and over 100 µM.
In the case of `CCn1ncc2cc(C3CC(c4c(-c5ccccc5)c5cc(Cl)ccc5[nH]c4=O)=NN3C(=O)CCC(=O)O)ccc21` (stereo not drawn) [d.31, 4-[5-(6-chloro-2-oxo-4-phenyl-1H-quinolin-3-yl)-3-(1-ethylindazol-5-yl)-3,4-dihydropyrazol-2-yl]-4-oxo-butanoic acid], the EC50 was over 100 µM in test [1] and over 50 µM in test [2].
Take `CCn1cc2cc(-c3ccc(C4CC(c5c(Cc6ccccc6)c6cc(Cl)ccc6[nH]c5=O)=NN4C(=O)CCC(=O)O)cc3)ccc2n1` (stereo not drawn) [d.93, 4-[5-(4-benzyl-6-chloro-2-oxo-1H-quinolin-3-yl)-3-[4-(2-ethylindazol-5-yl)phenyl]-3,4-dihydropyrazol-2-yl]-4-oxo-butanoic acid]: the results for the EC50 in test [1] and in test [2] were 53 µM and 56.6 µM, respectively.
As to `CC(=O)N1N=C(c2c(-c3ccccc3)c3cc(Cl)ccc3[nH]c2=O)CC1c1ccc(C(F)(F)F)cc1` (stereo not drawn) [d.15, 3-[2-acetyl-3-[4-(trifluoromethyl)phenyl]-3,4-dihydropyrazol-5-yl]-6-chloro-4-phenyl-1H-quinolin-2-one], the EC50 in test [1] was over 100 µM; in test [2], 11.4 µM.
Turning to `O=C(O)CCC(=O)N1N=C(c2c(-c3ccccc3)c3cc(Cl)ccc3[nH]c2=O)CC1c1cccnc1` (stereo not drawn) [d.98, 4-(3-(6-chloro-2-oxo-4-phenyl-1,2-dihydroquinolin-3-yl)-5-(pyridin-3-yl)-4,5-dihydro-1H-pyrazol-1-yl)-4-oxobutanoic acid], the EC50 in test [1] was 75 µM; in test [2] it was 144 µM. For the same molecule, the inhibition at 20 µM in test [3] is 22%.
With `CCn1cc2cc(C3CC(c4c(-c5ccccc5)c5cc(Cl)ccc5[nH]c4=O)=NN3C(=O)CCC(=O)O)ccc2n1` (stereo not drawn) [d.29, 4-[5-(6-chloro-2-oxo-4-phenyl-1H-quinolin-3-yl)-3-(2-ethylindazol-5-yl)-3,4-dihydropyrazol-2-yl]-4-oxo-butanoic acid], the EC50 in test [1] was 28 µM; in test [2], over 50 µM.
Consider `COc1ccc(C2CC(c3c(-c4ccccc4)c4cc(Cl)ccc4[nH]c3=O)=NN2C(=O)CCC(=O)O)cc1` (stereo not drawn) [d.11, 4-[5-(6-chloro-2-oxo-4-phenyl-1H-quinolin-3-yl)-3-(4-methoxyphenyl)-3,4-dihydropyrazol-2-yl]-4-oxo-butanoic acid], for which the values for the half-maximal effective concentration (EC50) in test [1] and in test [2] were over 100 µM and over 50 µM, respectively.
In the case of `COc1ccc(C2CC(c3c(Cc4ccccc4)c4cc(Cl)ccc4[nH]c3=O)=NN2C(=O)CCC(=O)O)cc1F` (stereo not drawn) [d.66, 4-[5-(4-benzyl-6-chloro-2-oxo-1H-quinolin-3-yl)-3-(3-fluoro-4-methoxy-phenyl)-3,4-dihydropyrazol-2-yl]-4-oxo-butanoic acid], the EC50 in test [1] is 25 µM; in test [2], 79.2 µM. Also, in test [3], the inhibition at 20 µM amounted to 6.15%.
For `CC(=O)N1N=C(c2c(-c3ccccc3)c3cc(Cl)ccc3[nH]c2=O)CC1c1ccc(Br)cc1` (stereo not drawn) [d.9, 3-[2-acetyl-3-(4-bromophenyl)-3,4-dihydropyrazol-5-yl]-6-chloro-4-phenyl-1H-quinolin-2-one], the EC50 in test [1] came to 38 µM; in test [2] it was 18 µM.
In the same order, the values of `O=C(O)CCC(=O)N1N=C(c2c(-c3ccccc3)c3cc(Cl)ccc3[nH]c2=O)CC1c1ccc(Br)cc1` (stereo not drawn) [d.8, 4-[3-(4-bromophenyl)-5-(6-chloro-2-oxo-4-phenyl-1H-quinolin-3-yl)-3,4-dihydropyrazol-2-yl]-4-oxo-butanoic acid] are 16 µM and 48 µM.
Regarding `CCCn1ncc2cc(C3CC(c4c(-c5ccccc5)c5cc(Cl)ccc5[nH]c4=O)=NN3C(C)=O)ccc21` (stereo not drawn) [d.34, 3-[2-acetyl-3-(1-propylindazol-5-yl)-3,4-dihydropyrazol-5-yl]-6-chloro-4-phenyl-1H-quinolin-2-one], the EC50 in test [1] came to 0.95 µM; in test [2], 11 µM. Moreover, the inhibition at 5 µM in test [3] (BXPC-3, at 5 μM) is 83%.
Turning to `O=C(O)CCC(=O)N1N=C(c2c(Cc3ccccc3)c3cc(Cl)ccc3[nH]c2=O)CC1c1ccc(-c2ccc(Cl)cc2)cc1` (stereo not drawn) [d.84, 4-[5-(4-benzyl-6-chloro-2-oxo-1H-quinolin-3-yl)-3-[4-(4-chlorophenyl)phenyl]-3,4-dihydropyrazol-2-yl]-4-oxo-butanoic acid], the results for the EC50 in test [1] and in test [2] were 90 µM and 28.4 µM, respectively. For the same molecule, in test [3], the inhibition at 20 µM worked out at 21.7%.
Regarding `CC(=O)N1N=C(c2c(-c3ccccc3)c3cc(Cl)ccc3[nH]c2=O)CC1c1ccc(-c2ccc(Br)cc2)cc1` (stereo not drawn) [d.40, 3-[2-acetyl-3-[4-(4-bromophenyl)phenyl]-3,4-dihydropyrazol-5-yl]-6-chloro-4-phenyl-1H-quinolin-2-one], the half-maximal effective concentration (EC50) in test [1] amounted to 45 µM; in test [2], 28 µM.
On the same counts, the results for `CC(=O)N1N=C(c2c(Cc3ccccc3)c3cc(Cl)ccc3[nH]c2=O)CC1c1ccc(F)cc1` (stereo not drawn) [d.51, 3-[2-acetyl-3-(4-fluorophenyl)-3,4-dihydropyrazol-5-yl]-4-benzyl-6-chloro-1H-quinolin-2-one] are 13 µM and 15.2 µM.
On the same counts, the results for `O=C(O)CCC(=O)N1N=C(c2c(-c3ccccc3)c3cc(Cl)ccc3[nH]c2=O)CC1c1ccc(C(F)(F)F)cc1` (stereo not drawn) [d.14, 4-[5-(6-chloro-2-oxo-4-phenyl-1H-quinolin-3-yl)-3-[4-(trifluoromethyl)phenyl]-3,4-dihydropyrazol-2-yl]-4-oxo-butanoic acid] are 29 µM and 50 µM.

The values are drawn from patent publication US12459914B2, “Compounds and compositions for the treatment of tumors” (FONDAZIONE ISTITUTO ITALIANO DI TECNOLOGIA, priority 2019, dated 2025).
